From US20260284087A1, “USES OF CANNABIDIOL (CBD) AND ADVANCED METABOLIC SYNDROME” (THE REGENTS OF THE UNIVERSITY OF CALIFORNIA, priority 2022, published 2026)

Experiments:
[1] = tested on: Otsuka Long-Evans Tokushima Fatty (OLETF) rats; assay: Plasma metabolomics in CBD-treated OLETF rats; format: in vivo, rat; settings: OLETF vs. CBD, 200 mg CBD/kg oral gavage for 5 weeks, p<0.0001
Source text: FIGS. 2A-2C CBD increases BAIBA. A) Metabolomic map showing metabolites with p<0.05 after Student's t-test, representing mean plasma peak intensity fold-changes between groups in metabolites with q<0.2, for OLETF vs. CBD, B) top 5 metabolites, associated pathway and change directionality listed by lowest p-value for OLETF vs. CBD and C) raw mean peak area of BAIBA. *p<0.05 compared to LETO and †p<0.05 compared to OLETF by ANOVA with Tukey's HSD or student's t-test.
(§1) To assess the effects of a CBD on BAT loss associated with progressive MetS, a cohort of 15-week-old Otsuka Long-Evans Tokushima Fatty (OLETF) rats were administered 200 mg CBD/kg by oral gavage for 5 weeks. Animals were fed ad libitum and monitored in metabolic cages alongside vehicle-treated OLETF and lean strain control Long-Evans Tokushima Otsuka (LETO) rats. Brown adipose tissue content was estimated from 2-dimensional images to quantify surface area. The Otsuka Long-Evans Tokushima Fatty (OLETF) rat is a monogenic model of diet-induced obesity accelerated by a mutation in the CCK receptor. […] At >40 weeks of age, OLETF rats suffer from severe metabolic dysfunction and therefore serve as a model of aged, severe MetS.

[2] = tested on: Otsuka Long-Evans Tokushima Fatty (OLETF) rats; assay: CBD effect on brown adipose tissue loss in OLETF rats with progressive MetS; format: in vivo, rat; settings: 15-week-old OLETF rats, 200 mg CBD/kg oral gavage for 5 weeks; p<0.05; BAT estimated from 2-dimensional images (surface area)
Experimental: as §1

Q: With `C=C(C)[C@@H]1CCC(C)=C[C@H]1c1c(O)cc(CCCCC)cc1O` [CBD, Cannabidiol] as the molecule, how does the “increase in ß-aminoisobutyric acid (BAIBA)” value [1] read?
A: 2.1 fold

Q: And the “BAT masses preserved (of BAT lost in OLETF control)” value [2]?
A: 55%
